# ChEMBL document CHEMBL3045270, “Synthesis and Fungicidal Activities of Heterocyclic Compounds Having -Methoxyimino-2-phenoxymethylbenzyl Group” (2000)
# Test system: Botrytis cinerea
# Assay: Fungicidal activity against Botryotinia fuckeliana infected cucumber plant at 7.8 ppm by foliar application
# Type: functional
row,SMILES,Activity [%]
1,CO/N=C(\c1ccccc1COc1ccc(Cl)cc1C)c1nccn1C,<90

# Test system: Podosphaera fuliginea
# Assay: Curative fungicidal activity against Podosphaera fuliginea infected cucumber plant at 31.3 ppm by foliar application
# Type: functional
row,SMILES,Activity [%]
1,CO/N=C(\c1ccccc1COc1ccc(Cl)cc1C)c1nccn1C,100
2,CO/N=C(/c1nnco1)c1ccccc1COc1ccc(Cl)cc1C,100
3,CO/N=C(/c1ccon1)c1ccccc1COc1ccc(C)cc1C,100
4,CNC(=O)/C(=N/OC)c1ccccc1Oc1ccccc1 [METOMINOSTROBIN],97

# Test system: Podosphaera fuliginea
# Assay: Preventive fungicidal activity against Podosphaera fuliginea infected cucumber plant at 31.3 ppm by foliar application
# Type: functional
row,SMILES,Activity [%]
1,CO/N=C(\c1ccccc1COc1ccc(Cl)cc1C)c1nccn1C,100
2,CO/N=C(/c1nnco1)c1ccccc1COc1ccc(Cl)cc1C,100
3,CO/N=C(/c1ccon1)c1ccccc1COc1ccc(C)cc1C,100
4,CNC(=O)/C(=N/OC)c1ccccc1Oc1ccccc1 [METOMINOSTROBIN],100

# Test system: Botrytis cinerea
# Assay: Fungicidal activity against Botryotinia fuckeliana infected cucumber plant at 125 ppm by foliar application
# Type: functional
row,SMILES,Activity [%]
1,CO/N=C(/c1nnco1)c1ccccc1COc1cc(C)ccc1C,<90
2,CO/N=C(\c1ccccc1COc1ccccc1C)c1nccn1C,<90
3,CO/N=C(/c1nnco1)c1ccccc1COc1ccccc1C,<90

# Test system: Botrytis cinerea
# Assay: Preventive fungicidal activity against Botryotinia fuckeliana infected cucumber plant at 31.3 ppm by foliar application
# Type: functional
row,SMILES,Activity [%]
1,CO/N=C(\c1ccccc1COc1ccc(Cl)cc1C)c1nccn1C,55
2,CO/N=C(/c1nnco1)c1ccccc1COc1ccc(Cl)cc1C,65
3,CO/N=C(/c1ccon1)c1ccccc1COc1ccc(C)cc1C,40
4,CNC(=O)/C(=N/OC)c1ccccc1Oc1ccccc1 [METOMINOSTROBIN],55

# Test system: Podosphaera fuliginea
# Assay: Fungicidal activity against Podosphaera fuliginea infected cucumber plant at 125 ppm by foliar application
# Type: functional
row,SMILES,Activity [%]
1,CO/N=C(\c1ccccc1COc1cc(C)ccc1C)c1snnc1C,90
2,CO/N=C(\c1ccccc1COc1cccc(C)c1)c1nccn1C,90
3,CO/N=C(/c1nnco1)c1ccccc1COc1cccc(Cl)c1,90
4,CO/N=C(/c1nnco1)c1ccccc1COc1cccc(C)c1,90
5,CO/N=C(\c1nnco1)c1ccccc1COc1ccc(Cl)cc1C,90

# Test system: Podosphaera fuliginea
# Assay: Fungicidal activity against Podosphaera fuliginea infected cucumber plant at 500 ppm by foliar application
# Type: functional
row,SMILES,Activity [%]
1,CO/N=C(/c1ncn[nH]1)c1ccccc1COc1cc(C)ccc1C,<90
2,CO/N=C(\c1ccccc1COc1cc(C)ccc1C)c1ncnn1C,<90
3,CO/N=C(\c1ccccc1COc1cc(C)ccc1C)c1nnnn1C,<90
4,CO/N=C(/c1ncno1)c1ccccc1COc1cc(C)ccc1C,<90
5,CO/N=C(\c1ccccc1COc1ccccc1)c1nccn1C,90
6,CO/N=C(\c1ccccc1COc1ccccc1OC)c1nccn1C,90
7,CO/N=C(/c1nnco1)c1ccccc1COc1ccc(Cl)cc1,90
8,CO/N=C(/c1nnco1)c1ccccc1COc1ccccc1OC,90
9,CO/N=C(/c1ccccc1COc1ccc(Cl)cc1C)c1nccn1C,90
10,CON=C(c1ccco1)c1ccccc1COc1cc(C)ccc1C (mixture of isomers),90
11,CON=C(c1cccs1)c1ccccc1COc1cc(C)ccc1C (mixture of isomers),<90
12,CON=C(c1ccccc1COc1cc(C)ccc1C)c1ccnn1C (mixture of isomers),<90
13,CON=C(c1cnco1)c1ccccc1COc1cc(C)ccc1C (mixture of isomers),90
14,CON=C(c1nccs1)c1ccccc1COc1cc(C)ccc1C (mixture of isomers),<90
15,CON=C(c1cc(C)ns1)c1ccccc1COc1cc(C)ccc1C (mixture of isomers),<90

# Test system: Botrytis cinerea
# Assay: Fungicidal activity against Botryotinia fuckeliana infected cucumber plant at 31.3 ppm by foliar application
# Type: functional
row,SMILES,Activity [%]
1,CO/N=C(/c1nnco1)c1ccccc1COc1ccc(Cl)cc1C,<90
2,CON=C(c1ccccc1COc1cc(C)ccc1C)c1nccn1C (mixture of isomers),<90

# Test system: Botrytis cinerea
# Assay: Curative fungicidal activity against Botryotinia fuckeliana infected cucumber plant at 31.3 ppm by foliar application
# Type: functional
row,SMILES,Activity [%]
1,CO/N=C(\c1ccccc1COc1ccc(Cl)cc1C)c1nccn1C,55
2,CO/N=C(/c1nnco1)c1ccccc1COc1ccc(Cl)cc1C,50
3,CO/N=C(/c1ccon1)c1ccccc1COc1ccc(C)cc1C,30
4,CNC(=O)/C(=N/OC)c1ccccc1Oc1ccccc1 [METOMINOSTROBIN],40

# Test system: Botrytis cinerea
# Assay: Fungicidal activity against Botryotinia fuckeliana infected cucumber plant at 500 ppm by foliar application
# Type: functional
row,SMILES,Activity [%]
1,CO/N=C(/c1nnco1)c1ccccc1COc1ccc(Cl)cc1Cl,<50
2,CO/N=C(/c1ncn[nH]1)c1ccccc1COc1cc(C)ccc1C,<50
3,CO/N=C(\c1ccccc1COc1cc(C)ccc1C)c1ncnn1C,<50
4,CO/N=C(\c1ccccc1COc1cc(C)ccc1C)c1nnnn1C,<50
5,CO/N=C(/c1ncno1)c1ccccc1COc1cc(C)ccc1C,<50
6,CO/N=C(/c1ncon1)c1ccccc1COc1cc(C)ccc1C,<50
7,CO/N=C(/c1noc(C)n1)c1ccccc1COc1cc(C)ccc1C,<50
8,CO/N=C(/c1nnc(C)o1)c1ccccc1COc1cc(C)ccc1C,<50
9,CO/N=C(\c1ccccc1COc1cc(C)ccc1C)c1snnc1C,<50
10,CO/N=C(\c1ccccc1COc1ccccc1)c1nccn1C,<50
11,CO/N=C(\c1ccccc1COc1ccccc1Cl)c1nccn1C,<50
12,CO/N=C(\c1ccccc1COc1cccc(Cl)c1)c1nccn1C,<50
13,CO/N=C(\c1ccccc1COc1ccc(Cl)cc1)c1nccn1C,<50
14,CO/N=C(\c1ccccc1COc1cccc(C)c1)c1nccn1C,<50
15,CO/N=C(\c1ccccc1COc1ccc(C)cc1)c1nccn1C,<50
16,CO/N=C(\c1ccccc1COc1ccccc1OC)c1nccn1C,<50
17,CO/N=C(\c1ccccc1COc1ccc(Cl)cc1Cl)c1nccn1C,<50

row,SMILES,Activity [%]
1,CO/N=C(\c1ccccc1COc1cc(Cl)ccc1Cl)c1nccn1C,<50
2,CO/N=C(/c1nnco1)c1ccccc1COc1ccccc1,<50
3,CO/N=C(/c1nnco1)c1ccccc1COc1ccccc1Cl,<50
4,CO/N=C(/c1nnco1)c1ccccc1COc1cccc(Cl)c1,<50
5,CO/N=C(/c1nnco1)c1ccccc1COc1ccc(Cl)cc1,<50
6,CO/N=C(/c1nnco1)c1ccccc1COc1cccc(C)c1,<50
7,CO/N=C(/c1nnco1)c1ccccc1COc1ccccc1OC,<50
8,CO/N=C(/c1nnco1)c1ccccc1COc1cc(Cl)ccc1Cl,<50
9,CO/N=C(/c1ccccc1COc1ccc(Cl)cc1C)c1nccn1C,<50
10,CO/N=C(\c1nnco1)c1ccccc1COc1ccc(Cl)cc1C,<50
11,CON=C(c1ccco1)c1ccccc1COc1cc(C)ccc1C (mixture of isomers),<50
12,CON=C(c1cccs1)c1ccccc1COc1cc(C)ccc1C (mixture of isomers),<50
13,CON=C(c1ccccc1COc1cc(C)ccc1C)c1ccnn1C (mixture of isomers),<50
14,CON=C(c1cnco1)c1ccccc1COc1cc(C)ccc1C (mixture of isomers),<50
15,CON=C(c1nccs1)c1ccccc1COc1cc(C)ccc1C (mixture of isomers),<50
16,CON=C(c1cc(C)ns1)c1ccccc1COc1cc(C)ccc1C (mixture of isomers),<50

# Test system: Podosphaera fuliginea
# Assay: Fungicidal activity against Podosphaera fuliginea infected cucumber plant at 31.3 ppm by foliar application
# Type: functional
row,SMILES,Activity [%]
1,CO/N=C(/c1ncon1)c1ccccc1COc1cc(C)ccc1C,90
2,CO/N=C(/c1noc(C)n1)c1ccccc1COc1cc(C)ccc1C,90
3,CO/N=C(/c1nnco1)c1ccccc1COc1ccccc1,90
4,CO/N=C(/c1nnco1)c1ccccc1COc1ccccc1Cl,90

# Test system: Podosphaera fuliginea
# Assay: Curative fungicidal activity against Podosphaera fuliginea infected cucumber plant at 7.8 ppm by foliar application
# Type: functional
row,SMILES,Activity [%]
1,CO/N=C(\c1ccccc1COc1ccc(Cl)cc1C)c1nccn1C,100
2,CO/N=C(/c1nnco1)c1ccccc1COc1ccc(Cl)cc1C,100
3,CO/N=C(/c1ccon1)c1ccccc1COc1ccc(C)cc1C,100
4,CNC(=O)/C(=N/OC)c1ccccc1Oc1ccccc1 [METOMINOSTROBIN],70

# Test system: Podosphaera fuliginea
# Assay: Fungicidal activity against Podosphaera fuliginea infected cucumber plant at 7.8 ppm by foliar application
# Type: functional
row,SMILES,Activity [%]
1,CO/N=C(/c1nnco1)c1ccccc1COc1ccc(Cl)cc1Cl,90
2,CO/N=C(\c1ccccc1COc1ccc(Cl)cc1C)c1nccn1C,90
3,CO/N=C(/c1nnco1)c1ccccc1COc1cc(C)ccc1C,90
4,CO/N=C(/c1nnc(C)o1)c1ccccc1COc1cc(C)ccc1C,90
5,CO/N=C(\c1ccccc1COc1ccccc1Cl)c1nccn1C,90
6,CO/N=C(\c1ccccc1COc1cccc(Cl)c1)c1nccn1C,90
7,CO/N=C(\c1ccccc1COc1ccc(Cl)cc1)c1nccn1C,90
8,CO/N=C(\c1ccccc1COc1ccccc1C)c1nccn1C,90
9,CO/N=C(\c1ccccc1COc1ccc(C)cc1)c1nccn1C,90
10,CO/N=C(\c1ccccc1COc1ccc(Cl)cc1Cl)c1nccn1C,90
11,CO/N=C(\c1ccccc1COc1cc(Cl)ccc1Cl)c1nccn1C,90
12,CO/N=C(/c1nnco1)c1ccccc1COc1ccccc1C,90
13,CO/N=C(/c1nnco1)c1ccccc1COc1cc(Cl)ccc1Cl,90
14,CO/N=C(/c1nnco1)c1ccccc1COc1ccc(Cl)cc1C,90
15,CON=C(c1ccccc1COc1cc(C)ccc1C)c1nccn1C (mixture of isomers),90

# Test system: Botrytis cinerea
# Assay: Curative fungicidal activity against Botryotinia fuckeliana infected cucumber plant at 7.8 ppm by foliar application
# Type: functional
row,SMILES,Activity [%]
1,CO/N=C(\c1ccccc1COc1ccc(Cl)cc1C)c1nccn1C,55
2,CO/N=C(/c1nnco1)c1ccccc1COc1ccc(Cl)cc1C,30
3,CO/N=C(/c1ccon1)c1ccccc1COc1ccc(C)cc1C,30
4,CNC(=O)/C(=N/OC)c1ccccc1Oc1ccccc1 [METOMINOSTROBIN],30

# Test system: Botrytis cinerea
# Assay: Preventive fungicidal activity against Botryotinia fuckeliana infected cucumber plant at 7.8 ppm by foliar application
# Type: functional
row,SMILES,Activity [%]
1,CO/N=C(\c1ccccc1COc1ccc(Cl)cc1C)c1nccn1C,60
2,CO/N=C(/c1nnco1)c1ccccc1COc1ccc(Cl)cc1C,30
3,CO/N=C(/c1ccon1)c1ccccc1COc1ccc(C)cc1C,20
4,CNC(=O)/C(=N/OC)c1ccccc1Oc1ccccc1 [METOMINOSTROBIN],30

# Test system: Podosphaera fuliginea
# Assay: Preventive fungicidal activity against Podosphaera fuliginea infected cucumber plant at 7.8 ppm by foliar application
# Type: functional
row,SMILES,Activity [%]
1,CO/N=C(\c1ccccc1COc1ccc(Cl)cc1C)c1nccn1C,100
2,CO/N=C(/c1nnco1)c1ccccc1COc1ccc(Cl)cc1C,100
3,CO/N=C(/c1ccon1)c1ccccc1COc1ccc(C)cc1C,100
4,CNC(=O)/C(=N/OC)c1ccccc1Oc1ccccc1 [METOMINOSTROBIN],70
